The supplement of paper PMC10307832

What was measured:
Assay in all cases: relative viability (nuclei count vs DMSO), 5 days (fraction); higher = more cells survive
[1] = compound: COc1cc(Nc2ncc(F)c(Nc3ccc4c(n3)NC(=O)C(C)(C)O4)n2)cc(OC)c1OC [R406] + Cc1cc(Nc2cc(N3CCN(C)CC3)nc(Sc3ccc(NC(=O)C4CC4)cc3)n2)n[nH]1 [Tozasertib] (partner 0.1 µM)
Method in brief: (§1)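 Lung cancer cell lines were seeded in 1536-well plates and dosed by pin tool the next day, with either a single drug or a fixed anchor-drug dose combined with five library-drug doses (not always all listed) spaced in √10 steps. Five days later, one step fixed the cells and stained their nuclei (final 0.05% Triton X-100, 1% formaldehyde, 1 ug/ml Hoechst), and nuclei were counted on 4× images. Relative viability is the nuclei count in treated wells divided by the count in vehicle wells, and each value is the median of duplicate plates.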

[2] = compound: O=C(/C=C/c1cccnc1)NCCCCC1CCN(C(=O)c2ccccc2)CC1 [Daporinad] + CC(=O)c1c(C)c2cnc(Nc3ccc(N4CCNCC4)cn3)nc2n(C2CCCC2)c1=O [Palbociclib] (partner 0.5 µM)
Method in brief: as §1

[3] = compound: O=C(/C=C/c1cccnc1)NCCCCC1CCN(C(=O)c2ccccc2)CC1 [Daporinad] + CS(=O)(=O)CCNCc1ccc(-c2ccc3ncnc(Nc4ccc(OCc5cccc(F)c5)c(Cl)c4)c3c2)o1 [Lapatinib] (partner 2 µM)
Method in brief: as §1

[4] = compound: O=C(/C=C/c1cccnc1)NCCCCC1CCN(C(=O)c2ccccc2)CC1 [Daporinad] + O=C(c1cc(Cc2n[nH]c(=O)c3ccccc23)ccc1F)N1CCN(C(=O)C2CC2)CC1 [Olaparib] (partner 8 µM)
Method in brief: as §1

Question: UMC-11 was tested. Which relative viability ([1]; first compound 0.08 µM) did it give?
Answer: 0.203

Question: And the relative viability ([1]; first compound 0.253 µM)?
Answer: 0.207

Question: And the relative viability ([1]; first compound 0.8 µM)?
Answer: 0.205

Question: What about the relative viability ([1]; first compound 2.53 µM) of the same cell line?
Answer: 0.25

Question: And the relative viability ([1]; first compound 8 µM)?
Answer: 0.185

Question: And the relative viability ([2]; first compound 0.0005 µM)?
Answer: 0.385

Question: And the relative viability ([2]; first compound 0.001581 µM)?
Answer: 0.338

Question: What about the relative viability ([2]; first compound 0.005 µM) of the same cell line?
Answer: 0.342

Question: And the relative viability ([2]; first compound 0.01581 µM)?
Answer: 0.395

Question: What about the relative viability ([3]; first compound 0.0005 µM) of the same cell line?
Answer: 0.995

Question: And the relative viability ([3]; first compound 0.001581 µM)?
Answer: 1.06

Question: And the relative viability ([3]; first compound 0.005 µM)?
Answer: 1.08

Question: And the relative viability ([3]; first compound 0.01581 µM)?
Answer: 1.24

Question: What about the relative viability ([4]; first compound 0.0005 µM) of the same cell line?
Answer: 0.294

Question: What about the relative viability ([4]; first compound 0.001581 µM) of the same cell line?
Answer: 0.339

Question: What about the relative viability ([4]; first compound 0.005 µM) of the same cell line?
Answer: 0.343

Question: And the relative viability ([4]; first compound 0.01581 µM)?
Answer: 0.309
